Measured values taken from patent publication US11034725B2, “Compositions and methods for treating cardiovascular disease” (Genentech, Inc., priority 2016, dated 2021).
Read-outs that look alike come from different tables or passages of the source. Bridge positions count the residues as written; N and C are the ends. Square brackets hold non-standard residues; d marks the D form. Peptide text beside a SMILES is read from it. * marks the point of attachment. Propanoyl(3-indol-3-yl) = O=C(CCc1c[nH]c2ccccc12)*; Butyryl(4-indol-3-yl) = O=C(CCCc1c[nH]c2ccccc12)*; Propanoyl(3-(4-F-phenyl)) = O=C(CCc1ccc(F)cc1)*; Propanoyl(3-(4-MeO-Ph)) = COc1ccc(CCC(=O)*)cc1; Propanoyl(3-(3-pyridyl)) = O=C(CCc1cccnc1)*; X43 = CS(=O)(=O)c1ccc(C(=O)CCC(=O)*)cc1; Butanoyl(4-OPh) = O=C(CCCOc1ccccc1)*; Propanoyl(3-cHex) = O=C(CCC1CCCCC1)*; X21 = O=C([C@@H]1C[C@@H]1c1cccnc1)*; X20 = O=C(c1cc(-c2ccncc2)n[nH]1)*; hArg = N=C(N)NCCCC[C@H](N)C(=O)O; X13 = O=C(CCN1CCS(=O)(=O)CC1)*; X28 = COc1cc(OCCCC(=O)*)ccc1CO; X37 = Cc1ccc(C(=O)CCC(=O)*)cc1; X22 = O=C(C1CC(Cc2ccccc2)C1)*; X25 = COc1cc(CCC(=O)*)ccc1O; X35 = Nc1ccc(CCC(=O)*)cn1; X27 = O=C(CCCN1CCOCC1)*; Pentanoyl = CCCCC(=O)*

What was measured:
PCSK9 = PCSK9 (Homo sapiens, UniProt Q8NBP7); test: PCSK9/EGF(A) TR-FRET binding assay
PCSK9Δhelix = molecular target: T1, PCSK9Δhelix (Homo sapiens, UniProt Q8NBP7); test: PCSK9Δhelix/Ab20 TR-FRET binding assay
T1 construct: Human PCSK9 construct M1-Q692 with an engineered TEV site (residue deletion Y166, R167); made in house; host or cells: CHO

[1] = TR-FRET, Table 8E, additional compounds, read-out: PCSK9/EGF(A) IC50
[2] = TR-FRET, Table 8E, additional compounds, read-out: PCSK9Δhelix/Ab20 IC50
[3] = TR-FRET, Table 8D, disulfide-cyclized extension peptides, read-out: PCSK9Δhelix/Ab20 IC50

T1 sequence (Q8NBP7 with tags, fused parts or gaps limits assumed): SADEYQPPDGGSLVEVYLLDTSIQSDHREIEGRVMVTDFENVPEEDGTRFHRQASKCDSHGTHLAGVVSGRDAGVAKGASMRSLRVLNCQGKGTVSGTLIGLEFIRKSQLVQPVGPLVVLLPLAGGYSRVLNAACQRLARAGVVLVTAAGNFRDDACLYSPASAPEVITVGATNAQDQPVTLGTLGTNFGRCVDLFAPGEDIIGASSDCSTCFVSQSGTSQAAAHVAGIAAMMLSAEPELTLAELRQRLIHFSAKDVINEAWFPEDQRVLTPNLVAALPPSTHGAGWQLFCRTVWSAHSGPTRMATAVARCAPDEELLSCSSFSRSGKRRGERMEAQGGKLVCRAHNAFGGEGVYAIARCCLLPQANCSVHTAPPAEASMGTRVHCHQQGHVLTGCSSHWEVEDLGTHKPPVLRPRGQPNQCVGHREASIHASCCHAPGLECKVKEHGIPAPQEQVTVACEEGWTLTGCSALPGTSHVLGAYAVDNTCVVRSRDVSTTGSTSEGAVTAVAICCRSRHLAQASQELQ
T1 sequence (Q8NBP7 31-152 partner limits assumed): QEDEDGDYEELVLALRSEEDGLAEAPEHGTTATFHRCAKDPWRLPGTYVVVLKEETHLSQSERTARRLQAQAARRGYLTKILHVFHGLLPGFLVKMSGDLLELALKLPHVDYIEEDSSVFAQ
PCSK9, sequence (Q8NBP7 153-692): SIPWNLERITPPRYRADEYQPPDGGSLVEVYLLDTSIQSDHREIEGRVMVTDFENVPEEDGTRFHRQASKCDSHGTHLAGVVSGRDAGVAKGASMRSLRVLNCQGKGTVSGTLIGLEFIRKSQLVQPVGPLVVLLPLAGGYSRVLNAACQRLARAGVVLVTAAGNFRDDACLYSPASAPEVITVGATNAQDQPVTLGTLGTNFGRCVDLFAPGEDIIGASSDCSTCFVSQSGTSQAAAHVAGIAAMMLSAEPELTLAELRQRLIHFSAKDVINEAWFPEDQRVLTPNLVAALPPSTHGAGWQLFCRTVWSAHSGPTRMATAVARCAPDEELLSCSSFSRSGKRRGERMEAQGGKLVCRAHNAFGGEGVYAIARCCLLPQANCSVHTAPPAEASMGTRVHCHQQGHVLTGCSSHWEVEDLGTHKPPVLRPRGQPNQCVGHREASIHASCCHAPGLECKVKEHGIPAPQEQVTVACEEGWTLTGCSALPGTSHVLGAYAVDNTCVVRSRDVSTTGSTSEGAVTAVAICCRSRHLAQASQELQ
PCSK9, sequence (Q8NBP7 31-152 partner limits assumed): as the sequence (Q8NBP7 31-152 partner limits assumed) above

SMILES	IC50 (PCSK9)	IC50 (PCSK9Δhelix; PCSK9Δhelix/Ab20 IC50, TR-FRET, Table 8E, additional compounds)	IC50 (PCSK9; [1])	IC50 (PCSK9Δhelix; [2])	IC50 (PCSK9Δhelix; [3])
CC[C@H](C)[C@H](NC(=O)[C@H](CCCCNC(=N)N)NC(=O)[C@@H](NC(=O)[C@H](CC(C)C)NC(=O)[C@H](CC(N)=O)NC(=O)[C@H](Cc1c[nH]c2ccccc12)NC(=O)CCc1ccc(O)c(OC)c1)C(C)C)C(=O)NCC(=O)N[C@@H](CCC(N)=O)C(=O)N[C@@H](CCCNC(=N)N)C(N)=O [Compound 239] (X25-WNLV[hArg]IGQR-NH2)	32 µM	1.2 µM			
CC[C@H](C)[C@H](NC(=O)[C@H](CCCCNC(=N)N)NC(=O)[C@@H](NC(=O)[C@H](CC(C)C)NC(=O)[C@H](CC(N)=O)NC(=O)[C@H](Cc1c[nH]c2ccccc12)NC(=O)CCc1c[nH]c2ccccc12)C(C)C)C(=O)NCC(=O)N[C@@H](CC(C)C)C(=O)N[C@@H](CC(C)C)C(=O)N[C@@H](CCCNC(=N)N)C(N)=O [Compound 201] ({Propanoyl(3-indol-3-yl)}-WNLV[hArg]IGLLR-NH2)			3.9 µM	1 µM	
CCCCC(=O)N[C@@H](Cc1c[nH]c2ccccc12)C(=O)N[C@@H](CC(N)=O)C(=O)N[C@@H](CC(C)C)C(=O)N[C@H](C(=O)N[C@@H](CCCCNC(=N)N)C(=O)N[C@H](C(=O)NCC(=O)N[C@@H](CC(C)C)C(=O)N[C@@H](CC(C)C)C(=O)N[C@@H](CCCNC(=N)N)C(N)=O)[C@@H](C)CC)C(C)C [Compound 191, n-BuC(O)-WNLV(homoR)IGLLR-NH2] (Pentanoyl-WNLV[hArg]IGLLR-NH2)			≥ 50 µM	1.3 µM	
CC[C@H](C)[C@H](NC(=O)[C@H](CCCCNC(=N)N)NC(=O)[C@@H](NC(=O)[C@H](CC(C)C)NC(=O)[C@H](CC(N)=O)NC(=O)[C@H](Cc1c[nH]c2ccccc12)NC(=O)CCc1ccc(F)cc1)C(C)C)C(=O)NCC(=O)N[C@@H](CC(C)C)C(=O)N[C@@H](CC(C)C)C(=O)N[C@@H](CCCNC(=N)N)C(N)=O [Compound 198] ({Propanoyl(3-(4-F-phenyl))}-WNLV[hArg]IGLLR-NH2)			1.7 µM	0.25 µM	
CC[C@H](C)[C@@H]1NC(=O)[C@H](CCCNC(=N)N)NC(=O)[C@H](CCCCN)NC(=O)[C@H](CC(C)C)NC(=O)[C@H](CC(N)=O)NC(=O)[C@H](Cc2c[nH]c3ccccc23)NC(=O)[C@H](CC(C)C)NC(=O)[C@@H](NC(=O)[C@@H](N)Cc2c[nH]c3ccccc23)CSSC[C@@H](C(=O)N[C@@H](Cc2c[nH]c3ccccc23)C(=O)N[C@@H](Cc2ccccc2)C(=O)O)NC(=O)[C@H](CCC(N)=O)NC(=O)[C@H](CO)NC(=O)CNC1=O [Compound 66] (H-WCLWNLKRIGSQCWF-OH; disulfide 2-13)					12 µM
CC[C@H](C)[C@H](NC(=O)[C@H](CCCCNC(=N)N)NC(=O)[C@@H](NC(=O)[C@H](CC(C)C)NC(=O)[C@H](CC(N)=O)NC(=O)[C@H](Cc1c[nH]c2ccccc12)NC(=O)CCc1ccc(N)nc1)C(C)C)C(=O)NCC(=O)N[C@@H](CC(C)C)C(=O)N[C@@H](CC(C)C)C(=O)N[C@@H](CCCNC(=N)N)C(N)=O [Compound 216] (X35-WNLV[hArg]IGLLR-NH2)			6 µM	0.3 µM	
CC[C@H](C)[C@H](NC(=O)[C@H](CCCNC(=N)N)NC(=O)[C@@H](NC(=O)[C@H](CC(C)C)NC(=O)[C@H](CC(N)=O)NC(=O)[C@H](Cc1c[nH]c2ccccc12)NC(=O)CCN1CCS(=O)(=O)CC1)C(C)C)C(=O)NCC(=O)N[C@@H](CC(C)C)C(=O)N[C@@H](CC(C)C)C(=O)N[C@@H](CCCNC(=N)N)C(N)=O [Compound 126] (X13-WNLVRIGLLR-NH2)			≥ 50 µM	19 µM	
CC[C@H](C)[C@H](NC(=O)[C@H](CCCNC(=N)N)NC(=O)[C@@H](NC(=O)[C@H](CC(C)C)NC(=O)[C@H](CC(N)=O)NC(=O)[C@H](Cc1c[nH]c2ccccc12)NC(=O)CCCN1CCOCC1)C(C)C)C(=O)NCC(=O)N[C@@H](CC(C)C)C(=O)N[C@H](C(=O)N[C@@H](CCCNC(=N)N)C(N)=O)[C@@H](C)O [Compound 162] (X27-WNLVRIGLTR-NH2)			≥ 50 µM	37 µM	
CC[C@H](C)[C@H](NC(=O)[C@H](CCCNC(=N)N)NC(=O)[C@@H](NC(=O)[C@H](CC(C)C)NC(=O)[C@H](CC(N)=O)NC(=O)[C@H](Cc1c[nH]c2ccccc12)NC(=O)CCC(=O)c1ccc(C)cc1)C(C)C)C(=O)NCC(=O)N[C@@H](CC(C)C)C(=O)N[C@H](C(=O)N[C@@H](CCCNC(=N)N)C(N)=O)[C@@H](C)O [Compound 165] (X37-WNLVRIGLTR-NH2)			≥ 50 µM	18 µM	
CC[C@H](C)[C@H](NC(=O)[C@H](CCCNC(=N)N)NC(=O)[C@@H](NC(=O)[C@H](CC(C)C)NC(=O)[C@H](CC(N)=O)NC(=O)[C@H](Cc1c[nH]c2ccccc12)NC(=O)CCc1ccc(OC)cc1)C(C)C)C(=O)NCC(=O)N[C@@H](CC(C)C)C(=O)N[C@H](C(=O)N[C@@H](CCCNC(=N)N)C(N)=O)[C@@H](C)O [Compound 166] ({Propanoyl(3-(4-MeO-Ph))}-WNLVRIGLTR-NH2)			≥ 50 µM	5.9 µM	
CC[C@H](C)[C@H](NC(=O)[C@H](CCCCNC(=N)N)NC(=O)[C@@H](NC(=O)[C@H](CC(C)C)NC(=O)[C@H](CC(N)=O)NC(=O)[C@H](Cc1c[nH]c2ccccc12)NC(=O)CCCOc1ccc(CO)c(OC)c1)C(C)C)C(=O)NCC(=O)N[C@@H](CC(C)C)C(=O)N[C@@H](CC(C)C)C(=O)N[C@@H](CCCNC(=N)N)C(N)=O [Compound 204] (X28-WNLV[hArg]IGLLR-NH2)			3.6 µM	0.87 µM	
CC[C@H](C)[C@H](NC(=O)[C@H](CCCCNC(=N)N)NC(=O)[C@@H](NC(=O)[C@H](CC(C)C)NC(=O)[C@H](CC(N)=O)NC(=O)[C@H](Cc1c[nH]c2ccccc12)NC(=O)CCCc1c[nH]c2ccccc12)C(C)C)C(=O)NCC(=O)N[C@@H](CC(C)C)C(=O)N[C@@H](CC(C)C)C(=O)N[C@@H](CCCNC(=N)N)C(N)=O [Compound 200] ({Butyryl(4-indol-3-yl)}-WNLV[hArg]IGLLR-NH2)			3.2 µM	0.67 µM	
CC[C@H](C)[C@H](NC(=O)[C@H](CCCNC(=N)N)NC(=O)[C@@H](NC(=O)[C@H](CC(C)C)NC(=O)[C@H](CC(N)=O)NC(=O)[C@H](Cc1c[nH]c2ccccc12)NC(=O)CCC1CCCCC1)C(C)C)C(=O)NCC(=O)N[C@@H](CC(C)C)C(=O)N[C@@H](CC(C)C)C(=O)N[C@@H](CCCNC(=N)N)C(N)=O [Compound 151] ({Propanoyl(3-cHex)}-WNLVRIGLLR-NH2)			6.9 µM	2.5 µM	
CC[C@H](C)[C@H](NC(=O)[C@H](CCCNC(=N)N)NC(=O)[C@@H](NC(=O)[C@H](CC(C)C)NC(=O)[C@H](CC(N)=O)NC(=O)[C@H](Cc1c[nH]c2ccccc12)NC(=O)C1CC(Cc2ccccc2)C1)C(C)C)C(=O)NCC(=O)N[C@@H](CC(C)C)C(=O)N[C@H](C(=O)N[C@@H](CCCNC(=N)N)C(N)=O)[C@@H](C)O (stereo partly shown) [Compound 184] (X22-WNLVRIGLTR-NH2)			19 µM	12 µM	
CC[C@H](C)[C@H](NC(=O)[C@H](CCCCNC(=N)N)NC(=O)[C@@H](NC(=O)[C@H](CC(C)C)NC(=O)[C@H](CC(N)=O)NC(=O)[C@H](Cc1c[nH]c2ccccc12)NC(=O)CCCOc1ccccc1)C(C)C)C(=O)NCC(=O)N[C@@H](CC(C)C)C(=O)N[C@@H](CC(C)C)C(=O)N[C@@H](CCCNC(=N)N)C(N)=O [Compound 209] ({Butanoyl(4-OPh)}-WNLV[hArg]IGLLR-NH2)			2.9 µM	0.45 µM	
CC[C@H](C)[C@H](NC(=O)[C@H](CCCNC(=N)N)NC(=O)[C@@H](NC(=O)[C@H](CC(C)C)NC(=O)[C@H](CC(N)=O)NC(=O)[C@H](Cc1c[nH]c2ccccc12)NC(=O)c1cc(-c2ccncc2)n[nH]1)C(C)C)C(=O)NCC(=O)N[C@@H](CC(C)C)C(=O)N[C@H](C(=O)N[C@@H](CCCNC(=N)N)C(N)=O)[C@@H](C)O [Compound 188] (X20-WNLVRIGLTR-NH2)			22 µM	7.6 µM	
CC[C@H](C)[C@H](NC(=O)[C@H](CCCNC(=N)N)NC(=O)[C@@H](NC(=O)[C@H](CC(C)C)NC(=O)[C@H](CC(N)=O)NC(=O)[C@H](Cc1c[nH]c2ccccc12)NC(=O)CCc1cccnc1)C(C)C)C(=O)NCC(=O)N[C@@H](CC(C)C)C(=O)N[C@@H](CC(C)C)C(=O)N[C@@H](CCCNC(=N)N)C(N)=O [Compound 138] ({Propanoyl(3-(3-pyridyl))}-WNLVRIGLLR-NH2)			48 µM	4.9 µM	
CC[C@H](C)[C@H](NC(=O)[C@H](CCCNC(=N)N)NC(=O)[C@@H](NC(=O)[C@H](CC(C)C)NC(=O)[C@H](CC(N)=O)NC(=O)[C@H](Cc1c[nH]c2ccccc12)NC(=O)CCC(=O)c1ccc(S(C)(=O)=O)cc1)C(C)C)C(=O)NCC(=O)N[C@@H](CC(C)C)C(=O)N[C@H](C(=O)N[C@@H](CCCNC(=N)N)C(N)=O)[C@@H](C)O [Compound 163] (X43-WNLVRIGLTR-NH2)			≥ 50 µM	37 µM	
CC[C@H](C)[C@H](NC(=O)[C@H](CCCCNC(=N)N)NC(=O)[C@@H](NC(=O)[C@H](CC(C)C)NC(=O)[C@H](CC(N)=O)NC(=O)[C@H](Cc1c[nH]c2ccccc12)NC(=O)[C@@H]1C[C@@H]1c1cccnc1)C(C)C)C(=O)NCC(=O)N[C@@H](CC(C)C)C(=O)N[C@@H](CC(C)C)C(=O)N[C@@H](CCCNC(=N)N)C(N)=O [Compound 221] (X21-WNLV[hArg]IGLLR-NH2)			9.5 µM		
CC[C@H](C)[C@@H]1NC(=O)[C@H](CCCNC(=N)N)NC(=O)[C@H](CCCCN)NC(=O)[C@H](CC(C)C)NC(=O)[C@H](CC(N)=O)NC(=O)[C@H](Cc2c[nH]c3ccccc23)NC(=O)[C@H](CC(C)C)NC(=O)[C@@H](NC(=O)[C@H](Cc2c[nH]c3ccccc23)NC(C)=O)CSSC[C@@H](C(=O)N[C@@H](Cc2c[nH]c3ccccc23)C(=O)N[C@@H](Cc2ccccc2)C(=O)O)NC(=O)[C@H](CCC(N)=O)NC(=O)[C@H](CO)NC(=O)CNC1=O [Compound 90] (Ac-WCLWNLKRIGSQCWF-OH; disulfide 2-13)					7.38 µM
